From publication PMC6837341, “Evolutionarily conserved susceptibility of the mitochondrial respiratory chain to SDHI pesticides and its consequence on the impact of SDHIs on human cultured cells” (PLoS ONE, 2019)

Legend:
[1] = target: T1, glycerol-3-phosphate dehydrogenase (G3PDH) (Homo sapiens, UniProt P43304); test: Glycerol 3-phosphate quinone-DCPIP reductase (GQDR) activity; type: biochemical; conditions: up to 500 μM; not shown
T1 sequence (P43304 43-727): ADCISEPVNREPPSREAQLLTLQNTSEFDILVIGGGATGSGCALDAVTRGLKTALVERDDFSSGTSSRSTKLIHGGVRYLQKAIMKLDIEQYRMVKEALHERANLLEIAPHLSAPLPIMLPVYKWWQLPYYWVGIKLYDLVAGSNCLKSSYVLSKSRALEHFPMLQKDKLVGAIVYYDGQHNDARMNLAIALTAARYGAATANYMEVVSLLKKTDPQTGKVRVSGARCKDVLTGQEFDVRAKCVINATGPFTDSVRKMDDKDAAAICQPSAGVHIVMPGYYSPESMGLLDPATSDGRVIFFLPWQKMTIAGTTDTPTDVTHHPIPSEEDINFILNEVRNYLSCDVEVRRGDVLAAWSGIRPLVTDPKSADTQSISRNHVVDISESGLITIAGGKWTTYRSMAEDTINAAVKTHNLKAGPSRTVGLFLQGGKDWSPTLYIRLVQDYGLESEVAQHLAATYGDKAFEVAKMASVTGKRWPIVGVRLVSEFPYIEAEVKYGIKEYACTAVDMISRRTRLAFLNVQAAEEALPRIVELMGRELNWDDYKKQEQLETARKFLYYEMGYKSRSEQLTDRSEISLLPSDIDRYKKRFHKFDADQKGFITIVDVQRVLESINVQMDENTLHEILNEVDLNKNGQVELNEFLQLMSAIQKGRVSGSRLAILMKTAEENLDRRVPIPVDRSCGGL
Description: RC enzyme activities were spectrophotometrically measured using a pseudo-double-wavelength spectrophotometer (Cary 60, Agilent). Malonate-sensitive succinate quinone dichlorophenolindophenol (DCPIP) reductase (SQDR), as an indicator of the activity of the isolated SDH enzyme (isolated CII), and glycerol-3-phosphate quinone DCPIP reductase (GQDR), as a measure of the activity of the isolated glycerol-3-phosphate dehydrogenase (G3PDH), were assayed as previously described. To study the effect of SDHIs on the RC, we had to take into consideration the fact that these inhibitors act through binding to quinone-binding sites in the RC. Accordingly, we observed that the extent of the inhibitory effects of these substances varies with the addition of exogenous quinones (Fig 1). […] With this aim, we measured the malonate-sensitive succinate cytochrome c reductase (SDH+CIII), glycerol-3-phosphate cytochrome c reductase (G3PDH+CIII) and antimycin-sensitive quinol cytochrome c reductase (CIII) as previously described.

[2] = target: succinate cytochrome c reductase (SDH+CIII) (Homo sapiens, UniProt O14521+P21912+Q99643); test: Malonate-sensitive SCCR activity in fibroblasts grown in the presence of bixafen; type: cell-based; conditions: cells grown in glucose medium with 20 μM bixafen, measured after repeated washing
Description: To test SDHIs on growing skin fibroblasts, cells trypsinized from a confluent 75-cm^2 flask culture were seeded in 4×75-cm^2 flasks (20–25% confluency) containing GlucoMax medium (S1 Table). After allowing the culture to stand for one night, the medium was changed to the desired conditions, i.e., GlucoMax medium or MitoMax medium (S1 Table), supplemented with the chosen amount of SDHI (control conditions compensated for DMSO used to solubilize SDHI; 14 mM max). The number of cells was estimated from random images using the ImageJ processing program for 15–20 days without changing the medium (one unique exposure to SDHI).
RC enzyme activities were spectrophotometrically measured using a pseudo-double-wavelength spectrophotometer (Cary 60, Agilent). […] With this aim, we measured the malonate-sensitive succinate cytochrome c reductase (SDH+CIII), glycerol-3-phosphate cytochrome c reductase (G3PDH+CIII) and antimycin-sensitive quinol cytochrome c reductase (CIII) as previously described.
Given the substantial effect of SDHIs on the activity of human SDH, we next assessed the effects of these compounds on the viability of human cells in culture (primary skin fibroblasts) (Figs 3, 4 and 5). […]

Sequence of succinate cytochrome c reductase (SDH+CIII) (P21912 29-280): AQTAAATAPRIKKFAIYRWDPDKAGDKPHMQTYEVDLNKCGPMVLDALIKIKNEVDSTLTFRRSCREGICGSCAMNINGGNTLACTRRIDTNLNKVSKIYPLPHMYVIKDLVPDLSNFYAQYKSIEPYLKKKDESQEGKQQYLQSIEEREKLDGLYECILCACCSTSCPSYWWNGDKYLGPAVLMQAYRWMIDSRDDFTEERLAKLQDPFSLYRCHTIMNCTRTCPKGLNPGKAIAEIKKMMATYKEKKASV
Sequence of succinate cytochrome c reductase (SDH+CIII) (Q99643 30-169): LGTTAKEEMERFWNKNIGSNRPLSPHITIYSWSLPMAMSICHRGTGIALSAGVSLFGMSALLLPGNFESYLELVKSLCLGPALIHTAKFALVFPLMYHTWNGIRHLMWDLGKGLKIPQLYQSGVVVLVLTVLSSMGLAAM
Sequence of succinate cytochrome c reductase (SDH+CIII) (O14521 57-159): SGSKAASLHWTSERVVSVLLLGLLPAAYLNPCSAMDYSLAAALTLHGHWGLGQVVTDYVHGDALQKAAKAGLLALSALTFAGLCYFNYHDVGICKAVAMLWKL
Sequence of succinate cytochrome c reductase (SDH+CIII) (P31040 43-664 partner): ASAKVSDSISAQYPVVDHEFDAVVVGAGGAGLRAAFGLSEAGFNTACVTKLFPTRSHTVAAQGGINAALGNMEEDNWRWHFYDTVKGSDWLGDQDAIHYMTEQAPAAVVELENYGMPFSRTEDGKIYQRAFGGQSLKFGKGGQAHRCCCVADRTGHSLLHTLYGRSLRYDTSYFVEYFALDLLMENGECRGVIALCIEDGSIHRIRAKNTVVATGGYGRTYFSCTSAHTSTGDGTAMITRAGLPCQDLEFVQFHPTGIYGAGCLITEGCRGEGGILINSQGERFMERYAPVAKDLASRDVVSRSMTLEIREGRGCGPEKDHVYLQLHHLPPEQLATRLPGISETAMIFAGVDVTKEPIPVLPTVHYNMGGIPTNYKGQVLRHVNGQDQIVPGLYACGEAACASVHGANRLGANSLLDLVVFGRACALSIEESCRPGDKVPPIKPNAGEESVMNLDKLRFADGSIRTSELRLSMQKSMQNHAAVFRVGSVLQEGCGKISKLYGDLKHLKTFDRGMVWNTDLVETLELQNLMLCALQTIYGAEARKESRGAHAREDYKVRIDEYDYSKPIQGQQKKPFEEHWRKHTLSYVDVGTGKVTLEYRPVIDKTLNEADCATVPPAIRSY

**Q.** For `Cn1cc(C(=O)Nc2ccc(F)cc2-c2ccc(Cl)c(Cl)c2)c(C(F)F)n1` [Bixafen, bixafen], which “Inhibitory effect on glycerol 3-phosphate quinone-DCPIP reductase” value [1] is on record?
**A.** no inhibitory effect

**Q.** What about the “Inhibition of malonate-sensitive SCCR activity in cells” value [2] of the same molecule?
**A.** 80%
